Laboratory results as given in patent US20120245184A1 (Aderans Research Institute, Inc., priority 2006, published 2012).
Counter-ions that a name gives are not always drawn.

How the values were obtained:
sonic hedgehog pathway [1] = test: Human hedgehog reporter assay Daoy-GliLuc (DGL); format: cell-based
Description: (§1) Mouse (TM3: mouse Leydig cells; S12: mouse embryonic mesenchymal cells) and human (Daoy: human medulloblastoma cell; HepM: human embryonic palatal mesenchymal cell) cell lines are used to screen small molecules for their ability to modulate the activity of the sonic hedgehog pathway (Table 1, Table 2, and Table 3). Stable hedgehog pathway reporter cell lines are established by specific antibiotic selection following transfection of a reporter plasmid containing a luciferase gene located directly downstream from the gli promoter. Consequently, any observable changes in cellular luciferase activity may be attributed to changes in sonic hedgehog pathway activity in mouse and human cells, respectively, since gli is the major by-product of this pathway. To calculate activity, we generate an eleven point dose curve for each compound using 1:3 dilutions in 96 well assay plates. Each plate tested also contains low and high control to establish maximal pathway activation so to establish/compare a percentage activation of each tested compound (AMAX) on respective plates.
(§2) Stable hedgehog pathway reporter cell lines are established following specific antibiotic selection following transfection of a reporter plasmid
(§3) In short, typically cells are plated in MicroTiter-plates at 10,000-20,000 cells per well, in growth media (containing 10%-20% FBS). After 48-72 hrs (HGL and DGL respectively) the media in the assay plates is switched to low-serum containing media (0.5% FBS). At that time compounds are added (at 1-5 μM) to the assay plates, in the presence or absence of hedgehog protein (octyl-modified version; 1-5 ng/ml). After another 24 hrs of incubation, the media from the assay plates is discarded and replaced with luciferase assay-mix. Subsequently, plates are incubated at RT for ˜15-30 mins and then read in a luminometer. [note: addition of the Hedgehog protein, although not critical, will sensitize the assay allowing the identification of weak actives].

sonic hedgehog pathway [2] = test: Hedgehog reporter assay (gli-luciferase) in TM3 cells; format: cell-based, mouse; conditions: TM3 mouse Leydig cells, gli-luciferase reporter; read-out: TM3 Avg. EC50
Description: as §1, §2, §3

sonic hedgehog pathway [3] = test: Human hedgehog reporter assay HEPM-GliLuc (HGL); format: cell-based; conditions: HepM human embryonic palatal mesenchymal cells, gli-luciferase reporter; read-out: HEPM Avg. EC50
Description: as §1, §2, §3

sonic hedgehog pathway [4] = test: Hedgehog reporter assay (gli-luciferase) in S12 cells; format: cell-based; conditions: S12 mouse embryonic mesenchymal cells, read-out: Mouse S12 Avg. EC50
Description: as §1, with “respective plates. Also we calculate EC50 values, or a concentration where the pathway will be exactly 50% activated, for each tested compound to determine potency. In these cell lines, compounds that register >20% AMAX values are considered active.” for “respective plates.”
as §2, §3

[5] = Daoy human medulloblastoma cells, gli-luciferase reporter, read-out: Daoy Avg. EC50
[6] = Daoy human medulloblastoma cells, gli-luciferase reporter, read-out: Human Daoy (Gli-Luc) Avg. EC50

SMILES | EC50 (sonic hedgehog pathway [1]; [5]) | EC50 (sonic hedgehog pathway [2]) | EC50 (sonic hedgehog pathway [3]) | EC50 (sonic hedgehog pathway [4]) | EC50 (sonic hedgehog pathway [1]; [6]) | EC50 (sonic hedgehog pathway [1]; Homo sapiens, Daoy, read-out: Human Daoy (Gli-Luc) Avg. EC50 (nM))
CCOc1ccc(-c2ccc(C(C)=O)cc2)cc1CN(C(=O)c1sc2ccccc2c1Cl)C1CCC(NC)CC1 (stereo not drawn) [Compound 311, 3-Chloro-benzo[b]thiophene-2-carboxylic acid (4′-acetyl-4-ethoxy-biphenyl-3-ylmethyl)-(4-methylamino-cyclohexyl)-amide hydrochloride] | < 50 nM | < 50 nM | 50 to 250 nM | – | – | –
CNC1CCC(N(Cc2cc(-c3cncnc3)ccc2OC)C(=O)c2sc3ccccc3c2Cl)CC1 (stereo not drawn) [Compound 324 (R20), 3-Chloro-benzo[b]thiophene-2-carboxylic acid (2-methoxy-5-pyrimidin-5-yl-benzyl)-(4-methylamino-cyclohexyl)-amide dihydrochloride] | < 50 nM | 50 to 250 nM | 50 to 250 nM | – | – | –
CCOc1ccc(-c2cncnc2)cc1CN(C(=O)c1sc2ccccc2c1Cl)C1CCC(NC)CC1 (stereo not drawn) [Compound 326, 3-Chloro-benzo[b]thiophene-2-carboxylic acid (2-ethoxy-5-pyrimidin-5-yl-benzyl)-(4-methylamino-cyclohexyl)-amide dihydrochloride] | < 50 nM | 50 to 250 nM | 50 to 250 nM | – | – | –
CCOc1ccc(-c2cccc(C#N)c2)cc1CN(C(=O)c1sc2ccccc2c1Cl)C1CCC(NC)CC1 (stereo not drawn) [Compound 328, 3-Chloro-benzo[b]thiophene-2-carboxylic acid (3′-cyano-4-ethoxy-biphenyl-3-ylmethyl)-(4-methylamino-cyclohexyl)-amide hydrochloride] | < 50 nM | < 50 nM | 50 to 250 nM | – | – | –
CNC1CCC(N(Cc2cc(-c3cnccn3)ccc2OC)C(=O)c2sc3ccccc3c2Cl)CC1 (stereo not drawn) [Compound 330 (R22), 3-Chloro-benzo[b]thiophene-2-carboxylic acid (2-methoxy-5-pyrazin-2-yl-benzyl)-(4-methylamino-cyclohexyl)-amide bis(trifluoroacetate)] | < 50 nM | 50 to 250 nM | 50 to 250 nM | – | – | –
CNC1CCC(N(Cc2cc(-c3ccc(CCl)cc3)ccc2OC)C(=O)c2sc3ccccc3c2Cl)CC1 (stereo not drawn) [Compound 340, 3-Chloro-benzo[b]thiophene-2-carboxylic acid (4′-chloromethyl-4-methoxy-biphenyl-3-ylmethyl)-(4-methylamino-cyclohexyl)-amide hydrochloride] | < 50 nM | < 50 nM | < 50 nM | – | – | –
CNC1CCC(N(Cc2cc(-c3ccc(N(C)C=O)cc3)ccc2OC)C(=O)c2sc3cccc(F)c3c2Cl)CC1 (stereo not drawn) [Compound 347, 3-Chloro-4-fluoro-benzo[b]thiophene-2-carboxylic acid[4′-(formyl-methyl-amino)-4-methoxy-biphenyl-3-ylmethyl]-(4-methylamino-cyclohexyl)-amide trifluoroacetate] | < 50 nM | < 50 nM | < 50 nM | – | – | –
CNC1CCC(N(Cc2cc(-c3ccc(C(=O)C(F)(F)F)cc3)ccc2OC)C(=O)c2sc3c(F)ccc(F)c3c2Cl)CC1 (stereo not drawn) [Compound 349, 3-Chloro-4,7-difluoro-benzo[b]thiophene-2-carboxylic acid[4-methoxy-4′-(2,2,2-trifluoro-acetyl)-biphenyl-3-ylmethyl]-(4-methylamino-cyclohexyl)-amide trifluoroacetate] | < 50 nM | < 50 nM | < 50 nM | – | – | –
CNC1CCC(N(Cc2cc(-c3cc(C)cc(C)c3)ccc2OC)C(=O)C2=C(Cl)c3c(C)ccc(F)c3C2)CC1 (stereo not drawn) [Compound 350, 3-Chloro-4,7-difluoro-benzo[b]thiophene-2-carboxylic acid[5-(2,6-dimethyl-pyridin-4-yl)-2-methoxy-benzyl]-(4-methylamino-cyclohexyl)-amide dihydrochloride] | < 50 nM | < 50 nM | 50 to 250 nM | – | – | –
CNC1CCC(N(Cc2cc(-c3ccc(CS(C)(=O)=O)cc3)ccc2OC)C(=O)c2sc3c(F)ccc(F)c3c2Cl)CC1 (stereo not drawn) [Compound 369, 3-Chloro-4,7-difluoro-benzo[b]thiophene-2-carboxylic acid(4′-methanesulfonylmethyl-4-methoxy-biphenyl-3-ylmethyl)-(4-methylamino-cyclohexyl)-amide hydrochloride] | – | – | – | < 50 nM | < 50 nM | –
CNC1CCC(N(Cc2cc(-c3ccc(NS(C)(=O)=O)cc3)ccc2OC)C(=O)c2sc3c(F)ccc(F)c3c2Cl)CC1 (stereo not drawn) [Compound 370, 3-Chloro-4,7-difluoro-benzo[b]thiophene-2-carboxylic acid (4′-methanesulfonylamino-4-methoxy-biphenyl-3-ylmethyl)-(4-methylamino-cyclohexyl)-amide hydrochloride] | – | – | – | < 50 nM | – | < 50 nM
CNC1CCC(N(Cc2cc(-c3ccc(N(C)S(C)(=O)=O)cc3)ccc2OC)C(=O)c2sc3c(F)ccc(F)c3c2Cl)CC1 (stereo not drawn) [Compound 371, 3-Chloro-4,7-difluoro-benzo[b]thiophene-2-carboxylic acid[4′-(methanesulfonyl-methyl-amino)-4-methoxy-biphenyl-3-ylmethyl]-(4-methylamino-cyclohexyl)-amide hydrochloride] | – | – | – | < 50 nM | < 50 nM | –

Second part, led by results:

EC50 (sonic hedgehog pathway [1]; [5]) | EC50 (sonic hedgehog pathway [2]) | SMILES | EC50 (sonic hedgehog pathway [3]) | EC50 (sonic hedgehog pathway [4]) | EC50 (sonic hedgehog pathway [1]; [6]) | EC50 (sonic hedgehog pathway [1]; Homo sapiens, Daoy, read-out: Human Daoy (Gli-Luc) Avg. EC50 (nM))
< 50 nM | < 50 nM | CNC1CCC(N(Cc2cc(-c3ccc(OC)cc3)ccc2OC)C(=O)c2sc3ccccc3c2Cl)CC1 (stereo not drawn) [Compound 305, 3-Chloro-benzo[b]thiophene-2-carboxylic acid (4,4′-dimethoxy-biphenyl-3-ylmethyl)-(4-methylamino-cyclohexyl)-amide hydrochloride] | 250 to 1000 nM | – | – | –
< 50 nM | 250 to 1000 nM | CCOc1ccc(-c2cnc(N)nc2)cc1CN(C(=O)c1sc2ccccc2c1Cl)[C@H]1CC[C@H](NC)CC1 [Compound 325, 3-Chloro-benzo[b]thiophene-2-carboxylic acid[5-(2-amino-pyrimidin-5-yl)-2-ethoxy-benzyl]-(4-methylamino-cyclohexyl)-amide dihydrochloride] | 50 to 250 nM | – | – | –
< 50 nM | < 50 nM | CNC1CCC(N(Cc2cc(-c3cncnc3)ccc2OC)C(=O)c2sc3c(F)ccc(F)c3c2Cl)CC1 (stereo not drawn) [Compound 343 (R15), 3-Chloro-4,7-difluoro-benzo[b]thiophene-2-carboxylic acid(2-methoxy-5-pyrimidin-5-yl-benzyl)-(4-methylamino-cyclohexyl)-amide dihydrochloride] | < 50 nM | – | – | –
< 50 nM | < 50 nM | CNC1CCC(N(Cc2cc(-c3cnccn3)ccc2OC)C(=O)c2sc3c(F)ccc(F)c3c2Cl)CC1 (stereo not drawn) [Compound 344 (R14), 3-Chloro-4,7-difluoro-benzo[b]thiophene-2-carboxylic acid(2-methoxy-5-pyrazin-2-yl-benzyl)-(4-methylamino-cyclohexyl)-amide dihydrochloride] | < 50 nM | – | – | –
< 50 nM | < 50 nM | CN[C@H]1CC[C@@H](N(Cc2cc(-c3ccnc(C)c3)ccc2OC)C(=O)C2=C(Cl)c3c(F)ccc(C)c3C2)CC1 [Compound 345, 3-Chloro-4,7-difluoro-benzo[b]thiophene-2-carboxylic acid[2-methoxy-5-(2-methyl-pyridin-4-yl)-benzyl]-(4-methylamino-cyclohexyl)-amide dihydrochloride] | < 50 nM | – | – | –
< 50 nM | < 50 nM | CNC1CCC(N(Cc2cc(-c3ccc(N)nc3)ccc2OC)C(=O)c2sc3c(F)ccc(F)c3c2Cl)CC1 (stereo not drawn) [Compound 352 (R18), 3-Chloro-4,7-difluoro-benzo[b]thiophene-2-carboxylic acid[5-(6-amino-pyridin-3-yl)-2-methoxy-benzyl]-(4-methylamino-cyclohexyl)-amide dihydrochloride] | < 50 nM | – | – | –
< 50 nM | < 50 nM | CN[C@H]1CC[C@@H](N(Cc2cc(-c3ccnc(N(C)C)c3)ccc2OC)C(=O)c2sc3c(C)ccc(C)c3c2Cl)CC1 [Compound 358, 3-Chloro-4,7-difluoro-benzo[b]thiophene-2-carboxylic acid[5-(2-dimethylamino-pyridin-4-yl)-2-methoxy-benzyl]-(4-methylamino-cyclohexyl)-amide dihydrochloride] | < 50 nM | – | – | –
